Test results as given in patent US20110257139A1, “TREATMENT OF DIARRHOEA” (ROYAL COLLEGE OF SURGEONS IN IRELAND, priority 2008, published 2011).

Columns and labels:
[1] = test system: K^+ channel conductances; experiment: Basolateral K^+ conductance in T84 monolayers (Ussing chambers); type: cell-based; settings: 5 μM, 24 hrs
Experimental: To measure basolateral K^+ conductance T84 cell monolayers in Ussing chambers were apically permeabilized with amphotericin B (50 μmol/L). A K^+ gradient (123.2-5.2 mmol/L) was created across the basolateral membrane by addition of a high K^+ (123.2 mmol/L) Ringers solution, in which NaCl is substituted with K^+-gluconate, to the apical reservoir. Ouabain (100 μmol/L) was added basolaterally to inhibit Na^+/K^+-ATPase pump activity. Under these conditions changes in Isc are wholly reflective of changes in basolateral K^+ conductance (IK^+).

[2] = test system: Na^+/K^+ ATPase pump; experiment: Abundance (western blotting) and surface expression (biotinylation) of Na^+/K^+ ATPase pump in T84 cells; type: cell-based; settings: 5 μM, 24 hrs
Experimental: Western Blotting: T84 monolayers were washed with ice-cold PBS and lysed (1% Nonidet P-40, 150 mmol/L NaCl, 50 mmol/L Tris Base, 1×Complete mini EDTA free protease inhibitor tablet, 0.1 mg/l mL PMSF, 1 mmol/L Na3VO4). Lysates were collected, centrifuged at 15,294×g for 10 minutes at 4° C., the pellet discarded, and the supernatant sonicated with 3×10 second pulses in order to disrupt membrane proteins. Samples were normalized for protein content and 2× gel loading buffer (50 mM Tris HCl, 100 mM DTT, 40% glycerol and 4% SDS) was added. Samples were then heated at 95° C. for 5 min, separated by sodium dodecyl sulphate polyacrylamide gel electrophoresis and transferred to PVDF membranes. Membranes were pre-blocked in 5% blocking buffer (Marvel in PBS) for 60 minutes at room temperature followed by incubation with primary antibody in 5% blocking buffer overnight at 4° C. […] After further washing (×4) in TBST, immunoreactive proteins were detected by enhanced chemiluminescence (Amersham Biosciences, UK).
Cell Surface Biotinylation: Following treatment T84 cell monolayers were washed ×3 in ice-cold PBS and freshly prepared biotinylation buffer (1 mg/mL sulfo-NHS-biotin (Pierce) in PBS) was added basolaterally. […] Na^+/K^+-ATPase □ subunit was detected by western blot analysis as described above.

[3] = test system: T84 cells; experiment: Cl^− secretory (Isc) responses of T84 cell monolayers in Ussing chambers; type: cell-based; settings: for Isc (Cl^− secretory) response to carbachol (CCh) / Isc (Cl^− secretory) response to forskolin: T84 monolayers pretreated with 1 μM for 24 hrs; for Isc (Cl^− secretory) response to carbachol (CCh): carbachol 100 μM; for Isc (Cl^− secretory) response to forskolin: forskolin 10 μM
Experimental: Measurements of chloride secretion: Cultured T84 epithelial cells were employed as a model of the colonic epithelium. T84 cells were grown as monolayers on filter supports. When grown in this way T84 cells retain many of the characteristics of native intestinal epithelium and are widely considered as being among the best reductionist models for analysing intestinal epithelial secretory responses. […] After this time they were washed of GW 4064, mounted in Ussing chambers, and voltage-clamped to zero potential difference. Under these conditions, transepithelial ion transport can be measured as changes in short-circuit current (Isc) and such changes in Isc across T84 cells have been established as being wholly due to Cl^− ion secretion. After mounting the cells in Ussing chambers we measured Cl^− secretory responses to both the calcium- and cAMP-dependent agonists, carbachol (100 μM) and forskolin (10 μM), respectively.

[4] = test system: mouse colon; experiment: Ex vivo Isc measurements in muscle-stripped colon after intraperitoneal dosing of mice; settings: 100 mg/kg intraperitoneally, 24 hrs
Experimental: Animal Studies: Male C57BL6 mice were bred and maintained in an environmentally controlled animal facility at Beaumont Hospital. Experiments were performed on 6-9 week old animals and were in compliance with Irish Department of Health and Children regulations and approved by the Beaumont Hospital Ethics Committee. […] The distal colon was removed, stripped of underlying smooth muscle, and mounted in Ussing chambers (window area=0.3 cm^2). Results were normalized and expressed as ΔIsc (μA/cm^2).
Administration of a potent and selective FXR agonist inhibits Cl^− secretory responses in mouse colon. FIG. 10.

[5] = test system: T84 cells; experiment: Cellular ATP levels in T84 cells (ENLITEN ATP Assay); type: cell-based; settings: 5 μM, 24 hrs
Experimental: Cells were then lysed with hypotonic lysis buffer (2 mM EDTA, 100 mM Trizma base, brought to pH 7.75 with acetic acid) and frozen at −80° C. The lysate was later assayed for ATP content using the ENLITEN® ATP Assay System (Promega, Madison, Wis.).

[6] = test system: T84 cells; experiment: Transepithelial conductance of T84 monolayers as a measure of cell viability; type: cell-based; settings: various concentrations for 24 hrs
Experimental: Monolayers were then mounted in Ussing chambers and transepithelial conductance measurements were made as a measure of cell viability (n=4-13). Only at concentrations>10 μM did GW 4064 exert toxic effects on T84 cells. FIG. 5.

GW4064
K^+ channel conductances [1]: did not significantly alter | Cellular abundance of the catalytic α subunit of Na^+/K^+ ATPase (western blotting) [2]: does not alter | Surface expression of Na^+/K^+ ATPase pump (biotinylation) [2]: does not alter | CCh-induced Cl^− secretory responses ([3]; GW4064 5 μM, 24 hrs): inhibited | Isc (Cl^− secretory) response to carbachol (CCh) [3]: significantly attenuates | Isc (Cl^− secretory) response to carbachol (CCh) ([3]; listed as GW 4064): significantly reduce | Isc (Cl^− secretory) response to forskolin [3]: significantly attenuates | Isc (Cl^− secretory) response to forskolin ([3]; listed as GW 4064): significantly reduce | Time-dependence of attenuation of Cl^− secretory responses to CCh ([3]; pretreated 5 μM for various periods of time, CCh 100 μM): attenuates Cl^− secretion in a time-dependent fashion | Concentration-dependence of antisecretory actions (Cl^− secretory responses to CCh and forskolin) ([3]; pretreated 0.1-10 μM for 24 hrs): concentration-dependent | Ex vivo Isc response of colon to CCh [4]: significantly attenuated | Ex vivo Isc response of colon to forskolin [4]: significantly attenuated | Cellular ATP levels [5]: does not alter | Concentration exerting toxic effects on T84 cells (transepithelial conductance) [6]: > 10 µM
